“Also recorded” adds a separate entry of the source. Blank lines part the entries; values can stand above or below the molecule they belong to. Numbered stars: 1 amine (or outer) side, 2 acyl side, 3 side chain; on linkers, the order of the positions; unused ones are H or OH. Bridge positions count the residues as written; N and C are the ends. Square brackets hold non-standard residues; d marks the D form. Peptide text beside a SMILES is read from it. X1 = O=C(c1cc(/C(=N/O)[*:2])cc(/C(=N/O)[*:3])c1)[*:1]; d(aIle) = CC[C@H](C)[C@@H](N)C(=O)O
Tests used:
[1] = Stability of bicyclic peptide in DMSO-d6/PBS/D2O, monitored by 1H NMR; format: physicochemical; conditions: 0.96 mM in DMSO-d6/PBS (pH 5.9)/D2O (1/8/1), 1 week
Experimental: FIG. 38. Stability studies of 5h (0.96 mM) in DMSO-d6/PBS (pH 5.9)/D2O (1/8/1) monitored by ^1H NMR.

[2] = Stability of bicyclic peptide in PBS at varied pH, monitored by LC-MS; format: physicochemical; conditions: 200 μM in PBS, pH 5.1, pH 7.4 and pH 9.2, over 16 days
Experimental: FIGS. 37a-37c. FIG. 37a. LC-MS (280 nm) trace of the bicyclic peptide 5h in PBS pH 5.1 over 16 days. FIG. 37b. LC-MS (280 nm) trace of the bicyclic peptide 5h in PBS pH 7.4 over 16 days. FIG. 37c. LC-MS (280 nm) trace of the bicyclic peptide 5h in PBS pH 9.21 over 16 days.
The bicyclic peptide 5h was prepared according to above mentioned procedure and purified by RP-HPLC. The solution of bicyclic peptide 5h (200 μM) in PBS was incubated at pH 5.1, pH 7.4, and pH 9.2, respectively. The sample was analyzed by LC-MS at different time points over 16 days (Method C).

[3] = Hydrolysis of OSu ester in aqueous acetone/PBS, monitored by 1H NMR; format: physicochemical
Excerpt: FIG. 15. Hydrolysis of OSu ester (S18) in 80% acetone/PBS (pH 7.4) monitored by ^1H NMR.
FIG. 16. Hydrolysis of OSu ester (S18) in 50% acetone/PBS (pH 7.4) monitored by ^1H NMR.

[4] = molecular target: SARS-CoV-2 Spike RBD (SARS-CoV-2), P0DTC2; experiment: ELISA: plate coated with 100 nM SARS-CoV-2 Spike RBD, biotinylated bicyclic peptide titrated, streptavidin-HRP/TMB, A450; curve fitting

Molecule: CC[C@H](C)[C@H]1NC(=O)[C@H](CC(C)C)NC(=O)[C@H](C)NC(=O)c2cc3cc(c2)/C(=N/O)SC[C@H](NC(=O)CNC1=O)C(=O)N1CCC[C@H]1C(=O)N[C@@H](Cc1ccccc1)C(=O)N1CCC[C@H]1C(=O)N[C@@H](C)C(=O)N[C@@H](CCCNC(=N)N)C(=O)N[C@@H](Cc1c[nH]c2ccccc12)C(=O)N[C@H](C(N)=O)CS/C3=N\O [5h] (AL[d(aIle)]GCPFPARWC-NH2; linker N-5-12 via X1)
Chemical stability (1H NMR profile) [1]: no change of NMR profile
Chemical stability in PBS (LC-MS profile) [2]: remained intact; also recorded: no change of the LC-MS profile

Molecule: O=C(ON1C(=O)CCC1=O)c1ccc(/C=N/O)cc1 [S18]
Percentage of S20 (%) ([3]; acetone-d6/PBS/D2O (5/4/1), 20 min): 12%
Percentage of S20 (%) ([3]; acetone-d6/PBS/D2O (5/4/1), 1 h): 26%
Percentage of S20 (%) ([3]; acetone-d6/PBS/D2O (5/4/1), 2 h): 33%
Percentage of S20 (%) ([3]; acetone-d6/PBS/D2O (8/1/1), 20 min): trace
Percentage of S20 (%) ([3]; acetone-d6/PBS/D2O (8/1/1), 1 h): trace
Percentage of S20 (%) ([3]; acetone-d6/PBS/D2O (8/1/1), 20 h): 4%

Second part, the molecule after the results:

Kd [4]: 3000 nM
Molecule: AIDSCRYNHGWQC (modifications not checked) [bicyclized NP8 (…)]

Kd [4]: 400 nM
Molecule: AISECNHIAEWMC (modifications not checked) [bicyclized NP10 (…)]

From US20260132547A1, “NOVEL PHAGE LIBRARIES OF BICYCLIC PEPTIDES” (priority 2024, published 2026)
